Results reported in patent US20260256714A1 (priority 2022, published 2026).

How the values were obtained:
glucocorticoid receptor = target: T1, glucocorticoid receptor (Homo sapiens, UniProt P04150); experiment: fluorescence polarization competition assay (POLARSCREEN Glucocorticoid Receptor Competitor Assay Kit, Red); format: binding
T1 sequence (P04150 1-777): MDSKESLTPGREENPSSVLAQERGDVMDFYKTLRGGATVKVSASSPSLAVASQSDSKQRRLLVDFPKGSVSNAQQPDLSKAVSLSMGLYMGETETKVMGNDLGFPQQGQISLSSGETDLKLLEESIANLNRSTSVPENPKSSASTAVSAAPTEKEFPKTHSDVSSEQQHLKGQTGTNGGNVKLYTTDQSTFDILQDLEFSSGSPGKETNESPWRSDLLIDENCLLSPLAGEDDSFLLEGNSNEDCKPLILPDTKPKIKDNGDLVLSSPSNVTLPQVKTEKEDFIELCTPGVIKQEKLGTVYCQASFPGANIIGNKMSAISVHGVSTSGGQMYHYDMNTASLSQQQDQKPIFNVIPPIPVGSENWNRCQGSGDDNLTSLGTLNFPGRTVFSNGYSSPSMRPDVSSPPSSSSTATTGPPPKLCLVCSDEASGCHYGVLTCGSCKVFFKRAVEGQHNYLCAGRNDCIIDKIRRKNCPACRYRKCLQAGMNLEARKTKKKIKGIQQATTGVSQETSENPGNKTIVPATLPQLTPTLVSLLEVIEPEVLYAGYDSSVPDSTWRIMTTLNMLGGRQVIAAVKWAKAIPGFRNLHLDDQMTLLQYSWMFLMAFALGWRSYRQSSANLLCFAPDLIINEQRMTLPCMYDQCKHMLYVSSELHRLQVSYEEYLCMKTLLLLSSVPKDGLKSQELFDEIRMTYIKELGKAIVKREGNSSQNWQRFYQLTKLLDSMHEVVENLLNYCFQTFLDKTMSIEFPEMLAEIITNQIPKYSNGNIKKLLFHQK
Protocol: The principle of the assay is to determine the binding affinity of a small molecule compound to glucocorticoid receptor by measuring the decrease in polarization caused by the failure of the fluormone tracer to bind to the glucocorticoid receptor in the presence of a small molecule compound that competitively binds to the glucocorticoid receptor.
The excitation wavelength used for the measurement was 535 nm, and the emission wavelength was 590 nm. This experiment was performed three times using the same method and the average value was calculated. A dose-response curve was derived using the measured values, and the IC50 value was calculated by finding the concentration of the sample corresponding to half of the highest measured value.

3T3-L1 cells = experiment: Oil Red O staining of MDI-differentiated 3T3-L1 preadipocytes (fat accumulation); format: cell-based; conditions: 0.5 or 1 μM every 48 hours, 6 days of MDI differentiation
Protocol: To differentiate 3T3-L1 cells grown to a confluent state into adipocytes, they were cultured in DMEM medium supplemented with MDI {0.5 mM isobutyl-methylxanthine, 1 μM dexamethasone, and 5 μg/mL insulin} for 48 h, then cultured in DMEM medium supplemented with 5 μg/mL insulin for 48 h, and then cultured in a medium containing 10% fetal bovine serum for 48 h.
The cells were incubated for a total of 6 days, and the cultures were removed at which point differentiation was complete, followed by Oil Red O staining. The cells were fixed with 35 to 40% formaldehyde for 15 minutes, washed with PBS, and stained with Oil Red O solution for 20 minutes. After completion of staining, the cells were washed four times with PBS, dissolved in isopropanol (2-propanol), and O.D. values were measured at 515 nm.

[1] = test system: intracellular glucocorticoid receptor; experiment: luciferase assay in GR-GAL4 Reporter (Luc)-HEK293 cells; format: cell-based; conditions: different concentrations, 1 hour before dexamethasone 20 nM, 24 hours incubation
Protocol: In this Example, transfected cells GR-GAL4 Reporter (Luc)-HEK293 (BPS Bioscience, USA) containing a recombinant gene in which luciferase is recombined into the promoter site of GRE were used. Transformed cells were seeded at 30,000 cells per well in 96 wells and stabilized for 16 hours. […] After 1 hour, the cells were treated with dexamethasone, a glucocorticoid agonist, at a concentration of 20 nM and incubated for 24 hours. 100 μL of ONE-STEP™ Luciferase Assay System (BPS Bioscience, USA) was added per well and reacted for 10 minutes, and then luminescence was measured using SpectraMax iD3 (Molecular Devices, USA).

Compound: C[C@@]1(C(=O)O)CC[C@]2(C)CC[C@]3(C)C4=CC(=O)c5c(cc(O)c(O)c5C=O)[C@]4(C)CC[C@@]3(C)[C@@H]2C1 [demethylzeylasteral, (2R,4aS,6aR,6aS,14aS,14bR)-9-formyl-10,11-dihydroxy-2,4a,6a,6a,14a-pentamethyl-8-oxo-1,3,4,5,6,13,14,14b-octahydropicene-2-carboxylic acid]
- IC50 (glucocorticoid receptor): 1190 nM
- intracellular fat accumulation (Oil Red O, O.D. at 515 nm) (3T3-L1 cells): reduction of intracellular fat accumulation in a concentration-dependent manner
- inhibitory effect on intracellular glucocorticoid receptor activity (luminescence) [1]: inhibited intracellular glucocorticoid receptor activity in a concentration-dependent manner
